# Source: patent US10155743B2, “Glutarimide derivatives, use thereof, pharmaceutical composition based thereon and methods for producing glutarimide derivatives” (OBSCHESTVO S OGRANICHENNOI OTVETSTVENNOSTIYU …, priority 2013, dated 2018)
# How the values were obtained:
# [1] = tested on: Coxsackie A2-virus (strain HCXV A2); assay: Antiviral activity against Coxsackie virus in vivo (mortality of infected mice); design: species or system white mice; conditions: mice; for inhibition in vivo at 30 mg/kg / mortality at 30 mg/kg: Mus musculus, po; for inhibition in vivo at 30 mg/kg: 168 h, read-out: Protective index (%); for inhibition in vivo at 30 mg/kg / Average expectancy life (days), Relative / Average expectancy life (days), Vs. control: 10LD50 HCXV A2, 30 mg/kg orally once daily for 7 days; for mortality at 30 mg/kg: 360 h, 10LD50 HCXV A2 i.m., 30 mg/kg orally once daily for 7 days from 24 h after infection, 15 days monitoring, read-out: Total mortality rate, %; for Average expectancy life (days), Vs. control: difference to virus control
# [2] = tested on: mucous membrane of nasal passages, formalin-induced acute rhinosinusitis; assay: Acute rhinosinusitis rat model (induced by intranasal 7.5% formalin solution); assay type: in vivo, Wistar rats; conditions: rats; for Macroscopic changes in the mucous membrane of nasal passages: Muculent or mucopurulent catarrh (number of animals) / Macroscopic changes in the mucous membrane of nasal passages: Without changes (number of animals): count out of n of the group; for The number of caliciform cells within 1 mm of the mucous membrane of the nasal septum: M ± m
# Protocol: Morphological studies of histologic preparations were conducted with a Leica DMLS light-optical microscope (Leica Microsystems, Germany). Micro-morphometric assessment was performed by using an ocular micrometer on a Leica DMLB microscope.
# Acute rhinosinusitis was induced by intranasal administration of 20 μl of 7.5% formalin solution (aqueous solution comprising 40% formaldehyde, 8% methyl alcohol, and 52% water) to each nasal passage of rats.
# Administration of formalin to rat nasal passages leads to the dissemination of inflammation to adjacent tissues, resulting in a clinical pattern similar to the symptoms of rhinosinusitis in a human.
# After an acclimatization period, the following groups were formed: • intact animals administered intragastrically a saline solution in an amount of 0.2 ml, the induction of acute rhinosinusitis was not performed; • a control group consisted of the animals administered intragastrically a saline solution in an amount of 0.2 ml for 7 days after induction of acute rhinosinusitis; • animals administered intramuscularly dexamethasone at a dose of 0.33 mg/kg for 7 days after induction of acute rhinosinusitis; and • animals administered the tested compounds at a dose of 27 mg/kg for 7 days after induction of acute rhinosinusitis.
# Clinical observation of each animal was performed every day at least twice daily.
# In the experiment with Wistar rats, the induction of acute rhinosinusitis by administration of a 7.5% formalin solution to nasal passages caused in the control group of animals pronounced pathological changes characterizing the development of an acute inflammation process in the nasal mucous. The caused pathology was characterized by congestion, hyperplasia, focal necrosis of the nasal meatus mucous membrane, an increased number of caliciform cells, pronounced infiltration by mononuclear cells and leucocytes, and mucus hyperproduction by submucosal glands.
# The mucous and submucous membranes of both nasal passages (respiratory and olfactory regions) of the experimental animals were subjected to a morphological analysis to evaluate a specific activity of the compounds.
# For microscopic examination, the sections were stained with hematoxylin and eosin. Detection of acid mukopolysaccharides, the production of which is increased in an inflammation, was performed by histochemical staining of the preparation with Alcian Blue (pH 2.5). The comparison and histological evaluation of changes were performed versus the group of intact rats.
# After slaughter, the gross appearance of inflammation in the nasal passages was studied in each animal. Histological, hystochemical and morphological studies of rats were intended to evaluate the following characteristics of nasal passages: congestion of the mucous membrane; hyperplasia and necrosis of nasal epithelium, the number of caliciform cells within 1 mm of the mucous membrane of the nasal septum, and the character of inflammation.
# In this study, the efficiency of the mucociliary system was evaluated by the number of caliciform cells and, as a consequence, microscopic changes in the mucous membrane of the nasal passages.
# [3] = tested on: influenza virus strain A/California/07/09 (H1N1) pdm09; assay: animal or person; assay type: in vivo, white outbred female mice; conditions: unidentified influenza virus, H1N1, in Mus musculus, po, 336 h, read-out: Mortality rate, %
# [4] = tested on: hRV strain (GKV reg. No. 2730); assay: Antiviral activity against rhinovirus in mice (body weight, lung weight, infectious titer in lungs); assay type: in vivo; conditions: Ribavirin 40 mg/kg
# [5] = tested compounds 27 mg/kg for 7 days
# [6] = dexamethasone 0.33 mg/kg intramuscularly for 7 days
SMILES,inhibition in vivo at 30 mg/kg [1] [%],mortality at 30 mg/kg [1] [%],"Average expectancy life (days), Relative [1] [days]","Average expectancy life (days), Vs. control [1]","Macroscopic changes in the mucous membrane of nasal passages: Muculent or mucopurulent catarrh (number of animals) [2, 5]","Macroscopic changes in the mucous membrane of nasal passages: Without changes (number of animals) [2, 5]",also measured
O=C(O)C(Cc1ccoc1)N1C(=O)CCCC1=O (stereo not drawn) [Compound 44],55,28.6,32.3,+20.1 days,4,4,
CC1CCC(=O)N(CCc2c[nH]cn2)C1=O (stereo not drawn) [Compound 56],,,,,3,5,
NC1CC(=O)N(CCc2c[nH]cn2)C(=O)C1 [Compound 65],,,,,4,4,
NC1CCC(=O)N(CCc2cnc[nH]2)C1=O (stereo not drawn) [Compound 67],50,35.7,27.0,+16.2 days,,,
CC1CCC(=O)N(C(Cc2cnc[nH]2)C(=O)O)C1=O (stereo not drawn) [Compound 70],,,,,4,4,
CC1CC(=O)N(C(Cc2cnc[nH]2)C(=O)O)C(=O)C1 (stereo not drawn) [Compound 71],44,35.7,28.6,+16.4 days,,,
NC1CCC(=O)N(C(Cc2c[nH]cn2)C(=O)O)C1=O (stereo not drawn) [Compound 75],50,35.7,27.3,+14.3 days,5,3,
O=C(O)C(Cc1cnc[nH]1)N1C(=O)CCC(O)C1=O (stereo not drawn) [Compound 76],,,,,6,2,
O=C(O)C(Cc1ccccn1)N1C(=O)CCCC1=O (stereo not drawn) [Compound 83],,,,,,,mortality at 30 mg/kg [3]: 45%
O=C1CCCC(=O)N1CCC1CNCCO1 (stereo not drawn) [Compound 89],27,53.3,17.7,+7.0 days,,,
O=C1CCCC(=O)N1CCC1COCCN1 (stereo not drawn) [Compound 90],50,35.7,25.9,+15.1 days,,,
O=C1CCCC(=O)N1CCc1nc2ccccc2[nH]1 [Compound 124],,,,,8,4,The number of caliciform cells within 1 mm of the mucous membrane of the nasal septum ([2]; tested compounds 27 mg/kg for 7 days after induction): 37.6 ± 1.4
"C[C@@H]1C[C@H]2[C@@H]3CCC4=CC(=O)C=C[C@]4(C)[C@@]3(F)[C@@H](O)C[C@]2(C)[C@@]1(O)C(=O)CO [Dexamethasone, dexamethasone, reference compound]",,,,,,,"The number of caliciform cells within 1 mm of the mucous membrane of the nasal septum ([2]; dexamethasone 0.33 mg/kg intramuscularly for 7 days after induction): 34.8 ± 2.1; Macroscopic changes in the mucous membrane of nasal passages: Muculent or mucopurulent catarrh (number of animals) [2, 6]: 3; Macroscopic changes in the mucous membrane of nasal passages: Without changes (number of animals) [2, 6]: 3"
"NC(=O)c1ncn([C@@H]2O[C@H](CO)[C@@H](O)[C@H]2O)n1 [Ribavirin, reference compound]",,,,,,,"Suppression of the reproduction of the virus in mouse lungs, Δ lg, Day 2 after infection [4]: 0.88 ± 0.5 Δ lg; Suppression of the reproduction of the virus in mouse lungs, Δ lg, Day 3 after infection [4]: 2.18 ± 0.26 Δ lg; Suppression of the reproduction of the virus in mouse lungs, Δ lg, Day 4 after infection [4]: 2 ± 0.16 Δ lg; Infectious titer of the virus in lungs, lg TCID50, Day 2 after infection ([4]; Hela cell culture): 3.13 ± 0.5 lg TCID50; Infectious titer of the virus in lungs, lg TCID50, Day 3 after infection ([4]; Hela cell culture): 0.33 ± 0.26 lg TCID50; Infectious titer of the virus in lungs, lg TCID50, Day 4 after infection ([4]; Hela cell culture): 0.2 ± 0.16 lg TCID50; Body weight of the mice after infection with hRV, day 0 ([4]; day 0): 7.66 ± 0.89; Body weight of the mice after infection with hRV, day 1 ([4]; day 1 after infection): 8.81 ± 5.94; Body weight of the mice after infection with hRV, day 2 ([4]; day 2 after infection): 13.87 ± 5.11; Lung weight of the mice after infection with hRV, day 2 ([4]; day 2 after infection): 152.6 ± 4.55; Body weight of the mice after infection with hRV, day 3 ([4]; day 3 after infection): 13.11 ± 1.37; Lung weight of the mice after infection with hRV, day 3 ([4]; day 3 after infection): 130.1 ± 5.4; Body weight of the mice after infection with hRV, day 4 ([4]; day 4 after infection): 13.37 ± 1.22; Lung weight of the mice after infection with hRV, day 4 ([4]; day 4 after infection): 120.5 ± 3.37"
